Source: US10766888B1, “HMOX1 inducers” (Mitobridge Inc., priority 2019, dated 2020)
“Also recorded” adds a separate entry of the source.

Key:
[1] = test system: HMOX1; assay: HMOX1 mRNA expression in HepG2 cells (Nanostring); type: cell-based, human; details: 24 hours treatment, mRNA fold change vs DMSO
Protocol: Example 147. HMOX1 Inducers of the Invention Strongly Increase In Vitro Expression of HMOX1
RNA Isolation and Quantification of Gene Expression
HepG2 cells were seeded at 250 k/well in 12-well tissue culture plates coated with collagen (collagen I, rat tail (thin plate coating); ENZO Life Sciences) for approximately 24 hours. The seeded cells were then treated with dose titration of the compound of Example 17 or dimethyl fumarate (DMF) (a Nrf2 activator; Fisher Scientific) via media change, with biological triplicates performed for each treatment. After approximately 24 hours of treatment, cells were visually inspected to confirm that no toxicity occurred with compound treatment. The treated cells were washed with PBS, aspirated, parafilmed and frozen at −80° C. prior to RNA isolation. RNA was isolated using Machery-Nagel isolation kit (NucleoSpin® RNA: catalog 740955.250) and then quantitated using ThermoFisher Nanodrop.
RNA was diluted for Nanostring gene expression analysis. […]
The relative mRNA levels of the HMOX1 gene in HepG2 cells treated with the compound of Example 17 or DMF were measured according to the methods described above. […]

[2] = test system: HbSS Townes sickle mice; assay: Heme-induced vaso-occlusion (stasis) in HbSS Townes sickle mice; type: in vivo; details: 10, 25, 50 mg/kg PO once daily for 8 days, 1 h after heme infusion
Text: Townes-SS mice were gavaged once daily with Vehicle or the compound of Example 17 for 8 days. After the last gavage dorsal skin-fold chambers were implanted on the mice and 20-22 flowing venules were selected and mapped in the subcutaneous skin using intravital microscopy. Mice were then infused via the tail vein with Panhematin (3.2 μmots heme/kg body weight). One hour after infusion each venule was re-examined for microvascular stasis (no flow) and data are expressed as % stasis. Stasis values are means+SD. One-Way ANOVA with Dunnett's Multiple comparison to Vehicle ****P<0.0001
Dosing Scheme of HMOX Inducers to HbSS Townes Sickle Mice
HbSS Townes sickle mice were oral gavaged once daily with Vehicle or the compound of Example 17 listed below for 8 days. To minimize experimental inconsistency, fresh formulation was prepared every day and vortexed prior to drawing test article into syringe for each dosing, and dosing was performed by the same individual throughout the day. The last-day dose was administered by oral gavage 4 hours prior to hemin infusion described below. • 1. […]
Male and female sickle mice, approximately 12 weeks of age, were weighed before surgery. […] All of the selected venules were re-examined at 1 h after hemin infusion, and the number of static (no flow) venules was counted and expressed as percent stasis. […]

[3] = test system: Primary human pulmonary artery endothelial cells (HPAEC); assay: Glutathione (GSH) levels in primary human endothelial cells under hemin stress; type: cell-based
Protocol: Example 149. Glutathione (GSH) Levels in Primary Human Endothelial Cells
Primary human pulmonary artery endothelial cells (HPAEC) (Lonza # CC-2530) cultured in endothelial cell growth medium-2 (EGM2 media, Lonza # CC-3162) were seeded in white 96-well plate (Corning® #3610) at 12.5 k cells per well and placed at 37° C. in 5% CO2. 18-24 hr post seeding, cells were treated with the compound of Example 17 via media change. 24 hr post treatment with the compound, cells were treated using a freshly prepared hemin stock (Sigma-Aldrich #51280 in 0.1N NaOH) alone or with the compound of Example 17. […] Media was aspirated off and GSH-Glo™ Glutathione Assay (Promega # V6911) was run following the manufacturer's protocol. White bottom plate seal (PerkinElmer #6005199) was used during read. Analysis was done using Softmax Pro.

## Cn1c(Nc2nc3ccccc3o2)nc2cc(C(=O)NCCOCCO)ccc21 [Example 17, 2-(benzo[d]oxazol-2-ylamino)-N-(2-(2-hydroxyethoxy)ethyl)-1-methyl-1H-benzo[d]imidazole-5-carboxamide]
[1]
  HMOX1 expression compared with DMF (in words): much more strongly than DMF
[2]
  microvascular stasis compared with Vehicle (in words): significantly reduced; also recorded: dose responsively inhibit
[3]; 24 hr pre-incubation, 30 min hemin stress
  GSH levels / protection from hemin mediated oxidative stress (in words): protects these cells from hemin mediated oxidative stress
[3]; after 30 min of hemin stress
  toxicity by visual inspection of cells: no toxicity
